Legend:
Type in all cases: cell-based
[1] = molecular target: T1, adenosine A2b receptor (Homo sapiens, UniProt P29275); test: Indirect determination of adenosine agonism by gene expression (luciferase reporter), A2b cells; settings: CHO cells stably transfected with A2b receptor cDNA; 50% of maximum stimulation
T1 construct: expressed in transfected cells; host or cells: CHO (Chinese Hamster Ovary)
T1 sequence (P29275 1-332): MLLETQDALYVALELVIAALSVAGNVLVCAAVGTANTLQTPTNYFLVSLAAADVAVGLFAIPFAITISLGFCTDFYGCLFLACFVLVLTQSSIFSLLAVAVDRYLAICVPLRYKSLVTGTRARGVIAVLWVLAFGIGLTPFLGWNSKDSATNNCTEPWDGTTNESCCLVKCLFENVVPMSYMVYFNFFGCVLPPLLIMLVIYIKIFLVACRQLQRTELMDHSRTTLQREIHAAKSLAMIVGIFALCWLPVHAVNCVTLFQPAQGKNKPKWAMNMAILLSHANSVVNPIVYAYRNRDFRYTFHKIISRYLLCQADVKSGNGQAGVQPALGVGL
From the text: (§1) Cells of the CHO (Chinese Hamster Ovary) permanent cell line are transfected stably with the cDNA for the adenosine receptor subtypes A1, A2a and A2b. The adenosine A1 receptors are coupled to the adenylate cyclase by way of Gi proteins, while the adenosine A2a and A2b receptors are coupled by way of Gs proteins. In correspondence with this, the formation of cAMP in the cell is inhibited or stimulated, respectively. After that, expression of the luciferase is modulated by way of a cAMP-dependent promoter. The luciferase test is optimized, with the aim of high sensitivity and reproducibility, low variance and good suitability for implementation on a robot system, by varying several test parameters, such as cell density, duration of the growth phase and the test incubation, forskolin concentration and medium composition. The following test protocol is used for pharmacologically characterizing cells and for the robot-assisted substance screening:
(§2) The stock cultures are grown, at 37° C. and under 5% CO2, in DMEM/F12 medium containing 10% FCS (fetal calf serum) and in each case split 1:10 after 2-3 days. The test cultures are seeded in 384-well plates with 2000 cells per well and grown at 37° C. for approx. 48 hours. The medium is then replaced with a physiological sodium chloride solution (130 mM sodium chloride, 5 mM potassium chloride, 2 mM calcium chloride, 20 mM HEPES, 1 mM magnesium chloride hexahydrate, 5 mM sodium bicarbonate, pH 7.4). The substances to be tested, which are dissolved in DMSO, are pipetted into the test cultures (maximum final concentration of DMSO in the test mixture: 0.5%) in a dilution series of from 5×10^−11M to 3×10^−6M (final concentration). 10 minutes later, forskolin is added to the A1 cells and all the cultures are subsequently incubated at 37° C. for four hours. After that, 35 μl of a solution which is composed of 50% lysis reagent (30 mM disodium hydrogenphosphate, 10% glycerol, 3% TritonX100, 25 mM TrisHCl, 2 mM dithiotreitol (DTT), pH 7.8) and 50% luciferase substrate solution (2.5 mM ATP, 0.5 mM luciferin, 0.1 mM coenzyme A, 10 mM tricine, 1.35 mM magnesium sulfate, 15 mM DTT, pH 7.8) are added to the test cultures, which are shaken for approx. 1 minute and the luciferase activity is measured using a camera system. The EC50 values are determined, i.e., the concentrations at which 50% of the luciferase answer is inhibited in the case of the A1 cell, and, respectively, 50% of the maximum stimulation with the corresponding substance is achieved in the case of the A2b and A2a cells. […] Pharmacol., 357 (1998), 1-9].

[2] = molecular target: T2, adenosine A2a receptor (Homo sapiens, UniProt P29274); test: Indirect determination of adenosine agonism by gene expression (luciferase reporter), A2a cells; settings: CHO cells stably transfected with A2a receptor cDNA; 50% of maximum stimulation
T2 construct: expressed in transfected cells; host or cells: CHO (Chinese Hamster Ovary)
T2 sequence (P29274 whole entry): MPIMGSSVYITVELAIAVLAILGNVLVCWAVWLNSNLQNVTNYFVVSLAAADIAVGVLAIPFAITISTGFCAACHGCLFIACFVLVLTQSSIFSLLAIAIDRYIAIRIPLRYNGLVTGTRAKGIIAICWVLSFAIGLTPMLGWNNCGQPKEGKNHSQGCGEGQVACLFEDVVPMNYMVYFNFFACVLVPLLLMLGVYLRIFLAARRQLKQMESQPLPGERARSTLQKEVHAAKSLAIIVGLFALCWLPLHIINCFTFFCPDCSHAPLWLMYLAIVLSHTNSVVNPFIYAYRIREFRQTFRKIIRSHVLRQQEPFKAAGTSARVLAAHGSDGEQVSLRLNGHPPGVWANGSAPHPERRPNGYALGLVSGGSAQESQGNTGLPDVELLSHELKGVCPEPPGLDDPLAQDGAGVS
From the text: as §1, §2

[3] = molecular target: T3, adenosine A1 receptor (Homo sapiens, UniProt P30542); test: Indirect determination of adenosine agonism by gene expression (luciferase reporter), A1 cells; settings: CHO cells stably transfected with A1 receptor cDNA; 1 μM forskolin; 50% inhibition of luciferase answer
T3 construct: expressed in transfected cells; host or cells: CHO (Chinese Hamster Ovary)
T3 sequence (P30542 1-326): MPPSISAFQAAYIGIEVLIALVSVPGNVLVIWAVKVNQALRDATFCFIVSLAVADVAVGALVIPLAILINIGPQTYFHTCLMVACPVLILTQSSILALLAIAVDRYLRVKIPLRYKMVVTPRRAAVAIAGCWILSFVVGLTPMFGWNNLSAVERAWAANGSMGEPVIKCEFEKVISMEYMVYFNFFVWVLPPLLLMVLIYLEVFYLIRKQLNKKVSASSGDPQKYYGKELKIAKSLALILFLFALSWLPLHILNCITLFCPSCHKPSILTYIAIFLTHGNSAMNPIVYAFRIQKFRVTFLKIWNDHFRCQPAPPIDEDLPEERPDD
From the text: as §1, §2

CNC(=O)c1nc(CSc2nc(N)c(C#N)c(-c3ccc(OC4CCOC4)cc3)c2C#N)cs1 (racemic) [Example 51, rac-4-[({6-Amino-3,5-dicyano-4-[4-(tetrahydrofuran-3-yloxy)phenyl]pyridin-2-yl}sulfanyl)methyl]-N-methyl-1,3-thiazole-2-carboxamide] showed an EC50 [1] of 177 nM, an EC50 [2] of 261 nM and an EC50 [3] of 0.51 nM.

In the case of N#Cc1c(N)nc(SCc2csc(C(N)=O)n2)c(C#N)c1-c1ccc(OC2CCOC2)cc1 (racemic) [Example 50, rac-4-[({6-Amino-3,5-dicyano-4-[4-(tetrahydrofuran-3-yloxy)phenyl]pyridin-2-yl}sulfanyl)methyl]-1,3-thiazole-2-carboxamide], the EC50 [1] is reported as 556 nM, the EC50 [2] is reported as 1100 nM and the EC50 [3] is reported as 0.78 nM.

N#Cc1c(SCc2csc(-c3ccc(Cl)cc3)n2)nc(N2CC(O)C2)c(C#N)c1-c1ccc(O[C@H]2COC[C@@H]2O)cc1 (single isomer, unassigned) [Example 29, ent-trans-2-({[2-(4-Chlorophenyl)-1,3-thiazol-4-yl]methyl}sulfanyl)-6-(3-hydroxyazetidin-1-yl)-4-(4-{[4-hydroxytetrahydrofuran-3-yl]oxy}phenyl)pyridine-3,5-dicarbonitrile] showed an EC50 [2] of 1270 nM and an EC50 [3] of 0.18 nM.

With N#Cc1c(N)nc(SCc2csc(N)n2)c(C#N)c1-c1ccc(O[C@H]2CCCC[C@@H]2O)cc1 [Example 9] the EC50 [1] was 3.9 nM and the EC50 [3] was 104 nM.

COC(=O)c1cccc(C(C)Sc2nc(N)c(C#N)c(-c3ccc(OC4CCOC4)cc3)c2C#N)c1 (single isomer, unassigned; ent-3) [Example 64, Methyl ent-3-[1-({6-amino-3,5-dicyano-4-[4-(tetrahydrofuran-3-yloxy)phenyl]pyridin-2-yl}sulfanyl)ethyl]benzoate] gave an EC50 [3] of 4.1 nM.

N#Cc1c(N)nc(SCc2cccnc2)c(C#N)c1-c1ccc(O[C@H]2CCC[C@H]2O)cc1 (racemic) [Example 41, rac-cis-2-Amino-4-(4-{[2-hydroxycyclopentyl]oxy}phenyl)-6-[(pyridin-3-ylmethyl)sulfanyl]pyridine-3,5-dicarbonitrile] gave an EC50 [1] of 11 nM, an EC50 [2] of 480 nM and an EC50 [3] of 2.9 nM.

N#Cc1c(N)nc(SCc2cccnc2)c(C#N)c1-c1ccc(O[C@H]2CCCC[C@@H]2O)cc1 [Example 8] was tested, and the EC50 [1] was 2.4 nM, the EC50 [2] was 497 nM and the EC50 [3] was 6.9 nM.

With N#Cc1c(N)nc(SCc2csc(Nc3ccc(F)cc3)n2)c(C#N)c1-c1ccc(O[C@H]2COC[C@@H]2O)cc1 (single isomer, unassigned) [Example 35, ent-trans-2-Amino-6-[({2-[(4-fluorophenyl)amino]-1,3-thiazol-4-yl}methyl)thio]-4-(4-{[4-hydroxytetrahydrofuran-3-yl]oxy}phenyl)pyridine-3,5-dicarbonitrile] the EC50 [1] was 43 nM, the EC50 [2] was 874 nM and the EC50 [3] was 0.56 nM.

For Cc1oc(-c2ccc(C(=O)O)cc2)nc1CSc1nc(N)c(C#N)c(-c2ccc(OC3CCOC3)cc2)c1C#N (racemic) [Example 49, rac-4-{4-[({6-Amino-3,5-dicyano-4-[4-(tetrahydrofuran-3-yloxy)phenyl]pyridin-2-yl}thio)methyl]-5-methyl-1,3-oxazol-2-yl}benzoic acid], the EC50 [2] was 782 nM and the EC50 [3] was 0.22 nM.

With N#Cc1c(N)nc(SCc2c[nH]cn2)c(C#N)c1-c1ccc(O[C@H]2CCCC[C@@H]2O)cc1 [Example 10] the EC50 [1] was 4.3 nM and the EC50 [3] was 265 nM.

In the case of N#Cc1c(N)nc(SCc2cccc(C(N)=O)c2)c(C#N)c1-c1ccc(OC2CCOC2)cc1 (stereo not shown) [Example 43], the EC50 [1] is reported as 537 nM, the EC50 [2] is reported as 424 nM and the EC50 [3] is reported as 0.16 nM.

For N#Cc1c(N)nc(SCc2csc(-c3ccc(Cl)cc3)n2)c(C#N)c1-c1ccc(O[C@H]2COC[C@@H]2O)cc1 (racemic) [Example 24, rac-trans-2-Amino-6-({[2-(4-chlorophenyl)-1,3-thiazol-4-yl]methyl}thio)-4-(4-{[4-hydroxytetrahydrofuran-3-yl]oxy}phenyl)pyridine-3,5-dicarbonitrile], the EC50 [2] was 506 nM and the EC50 [3] was 0.14 nM.

Work on N#Cc1ccccc1CSc1nc(N)c(C#N)c(-c2ccc(O[C@H]3CCCC[C@@H]3O)cc2)c1C#N (single isomer, unassigned) [Example 23, ent-trans-2-Amino-6-[(2-cyanobenzyl)sulfanyl]-4-(4-{[2-hydroxycyclohexyl]oxy}-phenyl)pyridine-3,5-dicarbonitrile] yielded an EC50 [1] of 6.9 nM, an EC50 [2] of 518 nM and an EC50 [3] of 168 nM.

In the case of N#Cc1c(N)nc(SCc2cccc(C(N)=O)c2)c(C#N)c1-c1ccc(OC2CCOC2)c(F)c1 (stereo not shown) [Example 58], the EC50 [1] is reported as 1010 nM, the EC50 [2] is reported as 909 nM and the EC50 [3] is reported as 0.63 nM.

For N#Cc1c(N)nc(SCc2cscn2)c(C#N)c1-c1ccc(O[C@H]2CCCC[C@@H]2O)cc1 [Example 14], the EC50 [1] was 16 nM, the EC50 [2] was 1920 nM and the EC50 [3] was 56 nM.

In the case of CC(Sc1nc(N)c(C#N)c(-c2ccc(OC3CCOC3)cc2)c1C#N)c1cccc(C(N)=O)c1 (single isomer, unassigned; ent-3) [Example 66, ent-3-[1-({6-Amino-3,5-dicyano-4-[4-(tetrahydrofuran-3-yloxy)phenyl]pyridin-2-yl}-sulfanyl)ethyl]benzamide], the EC50 [1] is reported as 1780 nM and the EC50 [3] is reported as 0.53 nM.

N#Cc1c(N)nc(SCc2ccccn2)c(C#N)c1-c1ccc(O[C@H]2COC[C@@H]2O)cc1 (single isomer, unassigned) [Example 32, ent-trans-2-Amino-4-(4-{[4-hydroxytetrahydrofuran-3-yl]oxy}phenyl)-6-[(pyridin-2-ylmethyl)thio]pyridine-3,5-dicarbonitrile] gave an EC50 [1] of 720 nM, an EC50 [2] of 144 nM and an EC50 [3] of 0.86 nM.

In the case of CNC(=O)c1cc(CSc2nc(N)c(C#N)c(-c3ccc(OC4CCOC4)cc3)c2C#N)ccn1 (stereo not shown) [Example 44], the EC50 [1] is reported as 234 nM, the EC50 [2] is reported as 69 nM and the EC50 [3] is reported as 0.08 nM.

— patent publication US20110021487A1, “CYCLOALKOXY-SUBSTITUTED 4-PHENYL-3,5-DICYANOPYRIDINES AND THEIR USE” (BAYER SCHERING PHARMA AKTIENGESELLSCHAFT, priority 2008, published 2011)
